Tests used:
[1] = biological target: T1, human DP1 receptor (Homo sapiens, UniProt Q13258); test: DP1 binding assay ([3H]BWA868C radioligand); conditions: human platelet membranes, 2 nM [3H]BWA868C; read-out: hDP1
T1 construct: tissue Biological Specialty Corporation; host or cells: human platelets, membrane preparation
T1 sequence (Q13258 1-359): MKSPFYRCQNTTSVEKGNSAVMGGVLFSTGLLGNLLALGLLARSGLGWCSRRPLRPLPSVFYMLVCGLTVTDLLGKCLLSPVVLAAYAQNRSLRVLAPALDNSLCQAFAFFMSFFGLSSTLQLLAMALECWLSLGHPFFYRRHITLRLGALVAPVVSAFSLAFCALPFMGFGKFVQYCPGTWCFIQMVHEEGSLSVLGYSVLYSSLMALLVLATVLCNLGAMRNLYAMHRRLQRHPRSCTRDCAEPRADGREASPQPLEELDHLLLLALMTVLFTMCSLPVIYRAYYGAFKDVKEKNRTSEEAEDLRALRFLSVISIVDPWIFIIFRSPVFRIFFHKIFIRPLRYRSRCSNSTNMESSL
Experimental: The ability of a compound to bind to the human DP1 receptor was evaluated via a radioligand membrane binding assay using the DP1 selective synthetic ligand [^3H]BWA868C. Packed human platelets (Biological Specialty Corporation), were resuspended in 6 volumes of Hepes/HBSS buffer (10 mM Hepes, 1 mM DTT in Hanks Balanced Salt Solution (HBSS), lysed and centrifuged at 75,000×g to pellet the membranes. Membranes were resuspended in Hepes/HBSS buffer to approximately 12 mg protein/ml. Membranes (20 μg protein/well) are incubated in 96-well plates with 2 nM [^3H]BWA868C and test compound in Assay Buffer (50 mM Hepes, 10 mM MnCl2, 1 mM EDTA, plus or minus 0.2% human serum albumin, pH 7.4) for 60 minutes at room temperature. The reactions are terminated by rapid filtration through Whatman GF/C glass fibre filter plates. The filter plates were pre-soaked in 0.33% polethylenimine for 30 minutes at room temperature then washed in Wash Buffer (50 mM Hepes, 0.5 M NaCl pH 7.4) prior to harvesting. After harvesting, the filter plates are washed 3 times with 1 ml cold Wash Buffer then dried. Scintillant is then added to the plates and the radioactivity retained on the filters is determined on a Packard TopCount (Perkin Elmer). Specific binding is determined as total radioactive binding minus non-specific binding in the presence of 10 μM BW A868C. IC50s were determined using GraphPad prism analysis of drug titration curves.

[2] = biological target: T2, human DP2 receptor (Homo sapiens, UniProt Q9Y5Y4); test: DP2/CRTH2 binding assay ([3H]PGD2 radioligand); conditions: membranes of HEK293 cells expressing recombinant human DP2, 1 nM [3H]PGD2; read-out: hDP2
T2 construct: expressed in transfected cells
T2 sequence (Q9Y5Y4 1-395): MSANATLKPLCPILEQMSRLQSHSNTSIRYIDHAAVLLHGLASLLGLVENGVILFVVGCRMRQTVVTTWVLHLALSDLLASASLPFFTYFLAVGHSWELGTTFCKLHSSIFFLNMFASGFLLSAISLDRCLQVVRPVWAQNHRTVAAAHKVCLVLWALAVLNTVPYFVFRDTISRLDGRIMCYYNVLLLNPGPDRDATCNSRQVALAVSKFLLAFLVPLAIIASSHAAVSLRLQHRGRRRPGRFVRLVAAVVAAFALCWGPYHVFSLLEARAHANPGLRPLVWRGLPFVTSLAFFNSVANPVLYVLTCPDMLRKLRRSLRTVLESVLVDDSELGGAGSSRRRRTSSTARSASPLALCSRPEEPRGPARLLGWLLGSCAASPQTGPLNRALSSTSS
How it was run: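 HEK293 membranes with stable recombinant human DP2, incubated with 1 nM [3H]PGD2 and compound 60 min at room temperature in pH 7.4 HEPES/MnCl2/EDTA buffer, with or without 0.2% human serum albumin.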

| IC50 [1] [nM] | IC50 [2] [nM] | Structure (SMILES) |
| --- | --- | --- |
| < 300 | < 300 | COc1ccc(CC(=O)O)cc1Oc1ccc(NC(=O)c2cc(Cl)cc(Cl)c2)cc1CSC(C)(C)C [Compound 66, {3-[2-tert-Butylsulfanylmethyl-4-(3,5-dichloro-benzoylamino)-phenoxy]-4-methoxy-phenyl}-acetic acid] |
| < 300 | < 300 | COc1ccc(CC(=O)O)cc1Oc1ccc(NC(=O)c2cc(F)cc(F)c2)cc1CSC(C)(C)C [Compound 67, {3-[2-tert-Butylsulfanylmethyl-4-(3,5-difluoro-benzoylamino)-phenoxy]-4-methoxy-phenyl}-acetic acid] |
| < 300 | < 300 | COc1ccc(CC(=O)O)cc1Oc1ccc(NC(=O)c2cccc(C(F)(F)F)c2)cc1CSCC(F)(F)F [Compound 68, {4-methoxy-3-[2-(2,2,2-trifluoro-ethylsulfanylmethyl)-4-(3-trifluoromethyl-benzoylamino)-phenoxy]-phenyl}-acetic acid] |
| 300 to 1000 | < 300 | COc1ccc(CC(=O)O)cc1Oc1ccc(NC(=O)c2cccnc2)cc1CSCC(F)(F)F [Compound 70, {4-methoxy-3-[4-[(pyridine-3-carbonyl)-amino]-2-(2,2,2-trifluoro-ethylsulfanylmethyl)-phenoxy]-phenyl}-acetic acid] |
| 300 to 1000 | < 300 | COc1ccc(CC(=O)O)cc1Oc1ccc(NC(=O)c2ccncc2)cc1CSCC(F)(F)F [Compound 71, {4-methoxy-3-[4-[(pyridine-4-carbonyl)-amino]-2-(2,2,2-trifluoro-ethylsulfanylmethyl)-phenoxy]-phenyl}-acetic acid] |
| > 1000 | 300 to 1000 | O=C(O)CCn1c2c(c3ccccc31)C[C@H](NS(=O)(=O)c1ccc(F)cc1)CC2 [Ramatroban, reference compound] |

More lines, now with the values behind:

| Structure (SMILES) | IC50 [1] [nM] | IC50 [2] [nM] |
| --- | --- | --- |
| COc1ccc(CC(=O)O)cc1Oc1ccc(NC(=O)c2ccc(Cl)cc2Cl)cc1CSC(C)(C)C [Compound 65, {3-[2-tert-Butylsulfanylmethyl-4-(2,4-dichloro-benzoylamino)-phenoxy]-4-methoxy-phenyl}-acetic acid] | < 300 | < 300 |
| COc1ccc(CC(=O)O)cc1Oc1ccc(NC(=O)c2ccc(C(F)(F)F)cc2)cc1CSCC(F)(F)F [Compound 69, {4-methoxy-3-[2-(2,2,2-trifluoro-ethylsulfanylmethyl)-4-(4-trifluoromethyl-benzoylamino)-phenoxy]-phenyl}-acetic acid] | < 300 | < 300 |
| COc1ccc(CC(=O)O)cc1Oc1ccc(NC(=O)C(C)(C)C)cc1C[S+]([O-])C(C)(C)C (centres unmarked) [Compound 73, {3-[4-(2,2-Dimethyl-propionylamino)-2-(2-methyl-propane-2-sulfinylmethyl)-phenoxy]-4-methoxy-phenyl}-acetic acid] | < 300 | < 300 |
| COc1ccc(CC(=O)O)cc1Oc1ccc(NC(=O)C(C)(C)C)cc1CS(=O)(=O)C(C)(C)C [Compound 74, {3-[4-(2,2-Dimethyl-propionylamino)-2-(2-methyl-propane-2-sulfonylmethyl)-phenoxy]-4-methoxy-phenyl}-acetic acid] | < 300 | < 300 |
| CC(C)(C)SCc1cc(NC(=O)C(C)(C)C)ccc1Oc1cc(CC(=O)O)ccc1O [Compound 75, {3-[2-tert-Butylsulfanylmethyl-4-(2,2-dimethyl-propionylamino)-phenoxy]-4-hydroxy-phenyl}-acetic acid] | < 300 | < 300 |
| CC(C)(C)C(=O)Nc1ccc(Oc2cc(CC(=O)O)ccc2O)c(C[S+]([O-])C(C)(C)C)c1 (centres unmarked) [Compound 76, {3-[4-(2,2-Dimethyl-propionylamino)-2-(2-methyl-propane-2-sulfinylmethyl)-phenoxy]-4-hydroxy-phenyl}-acetic acid] | < 300 | < 300 |
| COc1ccc(CC(=O)O[C@@H]2O[C@@H](C(=O)O)[C@H](O)[C@@H](O)[C@@H]2O)cc1Oc1ccc(NC(=O)C(C)(C)C)cc1CSC(C)(C)C [Compound 77, (2R,3R,4R,5S,6S)-6-(2-{3-[2-tert-Butylsulfanylmethyl-4-(2,2-dimethyl-propionylamino)-phenoxy]-4-methoxy-phenyl}-acetoxy)-3,4,5-trihydroxy-tetrahydro-pyran-2-carboxylic acid] | < 300 | < 300 |

Reference: patent US20110144160A1, “Antagonists of Prostaglandin D2 Receptors” (Amira Pharmaceuticals, Inc., priority 2008, published 2011)
